# According to patent publication US20260258009A1, “3-[(BENZO[D][1,3]DIOXOLANE-4-YL)OXY]PROPYLAMINE HYDROCHLORIDE, OPTICAL ISOMER AND CRYSTAL THEREOF, AND PREPARATION METHOD THEREFOR” (priority 2022, published 2026):
# Read-outs that look alike come from different tables or passages of the source.
# What was measured:
# ICR mice [1] = test: Mouse forced swimming test; format: in vivo; conditions: intragastric; for Immobility time: mice, 1 h after administration, mean±SD, n=12; for minimum effective dose (MED) / ED50: mouse forced swimming; for ED50: po, read-out: ED50 (median effective dose, FST-ED50)
# Description: SPF grade ICR mice were taken. The animals were grouped by weight, 12 animals per group, and the animals were allowed to acclimate for at least 3 days before behavioural test.
# The behavioural test was started 1 h after intragastric administration. The mice were placed in a transparent glass cylinder with water (water depth: 15 cm, water temperature: 23-25° C.) and video recorded for 6 min (the background was an LED light panel). At the end of the time, the mice were removed from the water and the next batch of mice was subjected to the behavioural test. Water was changed after every 3 batches of tests. After the test, the video of the behavioural test was derived and the cumulative immobility time of the mice 4 min after the 6 min forced swimming period was analyzed using the Forced Swim Scant 2.0 software.
# The test results are expressed as mean±SD. Comparisons between each group and the vehicle group were conducted using the t-test. The differences were considered statistically significant when. P<0.05.
# ICR mice [2] = test: in vivo; conditions: mouse acute toxicity LD50 / forced swimming ED50
# Description: (§1) The dose administered at the time of the formal test was determined based on the dose of the compound in the preliminary experiment that caused 100% and 0% death in mice. In the formal test, ICR mice were taken and randomly grouped, with 10 mice in each group, half male and half female, which were subjected to intragastric administration at 10 mL/kg.
# (§2) From the results of the mouse acute toxicity test, the compound of formula (I) is least toxic. The therapeutic index (TI=LD50/ED50) was calculated based on the results of the mouse acute toxicity and efficacy test.
# in vivo [3] = conditions: both sexes, ICR, mouse, in vivo, po
# Description: as §1, §2
# [4] = Solubility experiment (HPLC, external standard method); format: physicochemical; conditions: water, 20 °C, water, thermodynamic from solid
# Description: The concentrated solution was placed in a 20° C. water bath thermostatic oscillator for overnight oscillation (supersaturation) and filtered. The filtrate was taken, 1 mL of which was precisely measured and placed in a 100 mL volumetric flask. A diluent (water) was added, the mixture was diluted to volume and mixed well, 1 mL of which was precisely measured and placed in a 10 mL volumetric flask. A diluent was added, the mixture was diluted to volume and mixed well as a test sample solution.
# Control substance solution: A proper amount of 5 samples were respectively taken, precisely measured, dissolved in a proper amount of a diluent by ultrasonication, and diluted to give a solution containing about 0.1 mg of the sample per 1 mL. Two duplicate samples were prepared for each batch.
# • (1) Preparation of buffer: About 2.6428 g ammonium sulfate was weighed and dissolved in 1000 mL of water. 2 mL of triethylamine was added, and the pH value was adjusted to 4.0 with dilute sulfuric acid. • (2) Preparation of mobile phase: Methanol-0.02 mol/L ammonium sulfate solution (2 mL triethylamine was added per 1000 mL, and the pH value was adjusted to 4.0 with dilute sulfuric acid) (45:55). 1000 mL was prepared, mixed well, filtered, and used after ultrasonic treatment.
# Detection wavelength: 230 nm; flow rate: 1.0 mL/min; column temperature: 35° C.; sample injection volume: 20 μL; chromatographic column: Agilent Eclipse XDB-C18 chromatographic column (4.6×150 mm, 5 μm); mobile phase: methanol-0.02 mol/L ammonium sulfate solution (2 mL triethylamine was added per 1000 mL, and the pH value was adjusted to 4.0 with dilute sulfuric acid) (45:55).
# 20 μL of each solution was precisely measured, and injected separately into a liquid chromatograph. The chromatograms were recorded, and the solubility of the compounds was determined according to an external standard method.
# in vivo [5] = conditions: both, beagle, dog; for half-life: t1/2
# Description: Each group had six beagle dogs, half male and half female.
# Preparation of solutions: • 1) Intravenous injection administration: 0.9% Normal saline was used as a vehicle. • 2) Oral administration: According to the dose of 10 mg/kg (based on base), a corresponding mass of the drug was weighed according to the actual weight of the animal, and then filled into a capsule to be administered to the animal.
# [6] = 95% confidence interval of LD50
# [7] = Mouse acute toxicity LD50 (median lethal dose)
SMILES,Immobility time (ICR mice [1]; 0.2 mg/kg) [s],Immobility time (ICR mice [1]; 0.4 mg/kg) [s],Immobility time (ICR mice [1]; 0.8 mg/kg) [s],Immobility time (ICR mice [1]; 1.6 mg/kg) [s],Immobility time (ICR mice [1]; 15 mg/kg) [s],Immobility time (ICR mice [1]; 30 mg/kg) [s],minimum effective dose (MED) (ICR mice [1]) [mg/kg],ED50 (ICR mice [1]) [mg/kg],TI = LD50/ED50 (therapeutic index) (ICR mice [2]),LD50 at 7 days (in vivo [3]; [6]) [mg/kg],LD50 at 7 days (in vivo [3]; [7]) [mg/kg],other results
"CNCC[C@H](Oc1cccc2c1OCO2)c1ccccc1.Cl [(S)—N-methyl-3-phenyl-3-[(benzo[d][1,3]dioxolan-4-yl)oxy]propylamine hydrochloride]",180.4 ± 29.4,167.5 ± 45.7,147.0 ± 65.4,94.1 ± 35.4,8.9 ± 8.7,6.2 ± 9.7,1.6,1.74,38.4,13.1 to 91.3,66.8,
"CNCCC(Oc1cccc2c1OCO2)c1ccccc1.Cl (stereo not shown) [N-methyl-3-phenyl-3-[(benzo[d][1,3]dioxolan-4-yl)oxy]propylamine hydrochloride]",165.3 ± 37.2,125.6 ± 53.6,86.9 ± 53.4,83.2 ± 52.9,64.3 ± 73.7,3.7 ± 5.9,0.4,1.81,62.0,,,"solubility ([4]; Water, 20° C., overnight oscillation, read-out: Solubility): 1500 mg/mL; LD50 at 7 days (in vivo [3]; mice, single intragastric administration, observed within 7 days, read-out: Mouse acute toxicity LD50 (median lethal dose)): 112 mg/kg; LD50 at 7 days (in vivo [3]; mice, single intragastric administration, read-out: 95% confidence interval of LD50): 102 to 122 mg/kg"
"CNCC[C@@H](Oc1cccc2c1OCO2)c1ccccc1.Cl [Compound of formula I, (R)—N-methyl-3-phenyl-3-[(benzo[d][1,3]dioxolan-4-yl)oxy]propylamine hydrochloride]",178.6 ± 17.0,105.0 ± 72.1,106.0 ± 59.7,55.4 ± 41.1,13.0 ± 23.3,7.6 ± 4.4,0.4,0.96,120.4,106 to 125,116,"solubility ([4]; Solubility): 33.2 mg/mL; AUC(0-t) (in vivo [5]; iv, 0.3 mg/kg): 117 ng·h/mL; AUC(0-inf) (in vivo [5]; iv, 0.3 mg/kg): 119 ng·h/mL; Cmax (in vivo [5]; iv, 0.3 mg/kg): 80.4 ng/mL; Tmax (in vivo [5]; iv, 0.3 mg/kg): 0.08 h; half-life (in vivo [5]; iv, 0.3 mg/kg): 2.15 h; AUC(0-t) (in vivo [5]; po, 1 mg/kg): 100 ng·h/mL; AUC(0-inf) (in vivo [5]; po, 1 mg/kg): 102 ng·h/mL; Cmax (in vivo [5]; po, 1 mg/kg): 28.9 ng/mL; Tmax (in vivo [5]; po, 1 mg/kg): 1.23 h; half-life (in vivo [5]; po, 1 mg/kg): 2.36 h; bioavailability (in vivo [5]; po, Bioavailability): 25.7%"
